Read-outs that look alike come from different tables or passages of the source.
Target: human TrkA (Homo sapiens (Human), UniProt P04629)
Experiment: Human TrkA inhibition assay (Test Example 2)
Type: biochemical
Method in brief: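 Recombinant TrkA (1 nmol/L) was preincubated 15 min at room temperature with compound in HEPES/MgCl2/DTT buffer, then reacted with FL-peptide 27 (1.5 μmol/L) and ATP (500 μmol/L) for 120 min at 37 °C. After EDTA stop, substrate phosphorylation was read by microfluidic mobility shift. IC50 came from logistic regression over 3-fold dilution series.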

[1] = Table 155, human TrkA inhibition, read-out: IC50
[2] = Table 156, human TrkA inhibition, read-out: IC50
[3] = Table 154, human TrkA inhibition, read-out: IC50
[4] = human TrkA 1 nmol/L, ATP 500 μmol/L, 120 min at 37° C., read-out: IC50 values (TrkA phosphorylation inhibition)
[5] = Table 157, human TrkA inhibition, read-out: IC50

Chain of human TrkA (P04629 440-796): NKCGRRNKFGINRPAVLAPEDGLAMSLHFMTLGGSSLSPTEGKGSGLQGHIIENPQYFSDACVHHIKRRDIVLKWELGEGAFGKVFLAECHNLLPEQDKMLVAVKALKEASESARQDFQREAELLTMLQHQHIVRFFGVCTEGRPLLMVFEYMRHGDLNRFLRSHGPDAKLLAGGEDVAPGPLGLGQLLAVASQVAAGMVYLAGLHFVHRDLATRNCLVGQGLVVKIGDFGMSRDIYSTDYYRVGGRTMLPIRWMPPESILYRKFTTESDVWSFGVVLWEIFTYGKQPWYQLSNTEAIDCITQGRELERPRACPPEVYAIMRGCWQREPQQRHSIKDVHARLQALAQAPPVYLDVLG

## COCCN1C[C@@H](NC(=O)Nc2c(C)c(OCC3CNCCO3)nn2-c2ccccc2)[C@H](c2ccnc(F)c2)O1 (stereo partly drawn) [Compound I-500]
[1]
  IC50: < 0.1 µM

## COCCN1C[C@@H](NC(=O)Nc2c(C)c(-c3cnc4nc(C)nn4c3)nn2-c2ccccc2)[C@H](c2ccc(F)c(F)c2)O1 (racemic) [Compound I-43]
Table 152, human TrkA inhibition, read-out: IC50_nM
  IC50: < 0.1 µM

## COCCN1C[C@@H](NC(=O)Nc2c(C)c(-c3cnc(N4C[C@H]5CC[C@@H](C4)O5)nc3)nn2-c2ccccc2)[C@H](c2ccnc(F)c2)O1 (racemic) [Compound I-486]
[1]
  IC50: < 0.1 µM

## COCCN1C[C@@H](NC(=O)Nc2c(C)c(OCC3CNCCO3)nn2-c2ccccc2)[C@H](c2ccc(F)c(F)c2)O1 (single isomer, unassigned) [Compound I-576]
[2]
  IC50: < 0.1 µM

## COCCN1C[C@@H](NC(=O)Nc2c(C)c(-c3cnc(C(C)(C)O)c(F)c3)nn2-c2ccccc2)[C@H](c2ccnc(F)c2)O1 (racemic) [Compound I-459]
[1]
  IC50: < 0.1 µM

## CNC(=O)c1cc(-c2nn(-c3ccc(F)c(F)c3)c(NC(=O)N[C@@H]3CN(CCOC)O[C@H]3c3ccc(F)c(F)c3)c2C)cnc1OC (racemic) [Compound I-181]
[3]
  IC50: < 0.1 µM

## COCCN1C[C@@H](NC(=O)Nc2c(C)c(-c3cnn(C)c3)nn2-c2ccccc2)[C@H](c2cnc(F)c(F)c2)O1 [Compound I-245]
[4]
  IC50: 0.003 µM

## COCCN1C[C@@H](NC(=O)Nc2c(C)c(-c3cnc(C(=O)OC)c(CF)c3)nn2-c2ccccc2)[C@H](c2ccnc(F)c2)O1 (racemic) [Compound I-435]
[1]
  IC50: < 0.1 µM

## COCCN1C[C@@H](NC(=O)Nc2c(C)c(-c3cnc(Br)nc3)nn2-c2ccccc2)[C@H](c2ccnc(F)c2)O1 (racemic) [Compound I-433]
[1]
  IC50: < 0.1 µM

## COCCN1C[C@@H](NC(=O)Nc2c(C)c(-c3cc(C(N)=O)c(=O)n(C)c3)nn2-c2ccccc2)[C@H](c2ccnc(F)c2)O1 (racemic) [Compound I-105]
Table 153, human TrkA inhibition, read-out: IC50
  IC50: < 0.1 µM

## COCCN1C[C@@H](NC(=O)Nc2c(C)c(-c3cnc(C4(O)COC4)nc3)nn2-c2ccccc2)[C@H](c2ccnc(F)c2)O1 (racemic) [Compound I-360]
[1]
  IC50: < 0.1 µM

## COCCN1C[C@@H](NC(=O)Nc2c(C)c(-c3cnc4c(c3)CN(C)C4=O)nn2-c2ccccc2)[C@H](c2ccnc(F)c2)O1 (racemic) [Compound I-343]
[1]
  IC50: < 0.1 µM

## COCCN1C[C@@H](NC(=O)Nc2c(C)c(-c3cnc4c(c3)c(N3CCCC3)nn4C)nn2-c2ccccc2)[C@H](c2ccnc(F)c2)O1 (racemic) [Compound I-491]
[1]
  IC50: < 0.1 µM

## COCC[C@@H]1C[C@@H](NC(=O)Nc2c(C)c(-c3cnc(C)nc3)nn2-c2ccccc2)[C@H](c2ccnc(F)c2)O1 [Compound I-237]
[4]
  IC50: 0.0081 µM

## CCCN1C[C@@H](NC(=O)Nc2c(C)c(-c3cnc(OC)nc3)nn2-c2ccccc2)[C@H](c2ccc(F)c(F)c2)O1 (racemic) [Compound I-676]
[5]
  IC50: < 0.1 µM

## COCCN1C[C@@H](NC(=O)Nc2c(C)c(-c3cnc(N4CC5(COC5)C4)nc3)nn2-c2ccccc2)[C@H](c2cnc(F)c(F)c2)O1 [Compound I-430]
[1]
  IC50: < 0.1 µM

## COCCN1C[C@@H](NC(=O)Nc2c(C)c(-c3cnc(OC4CCN(C)CC4)nc3)nn2-c2ccccc2)[C@H](c2ccnc(F)c2)O1 (racemic) [Compound I-381]
[1]
  IC50: < 0.1 µM

## COCCN1C[C@@H](NC(=O)Nc2c(C)c(-c3cnc(C(N)=O)c(C)c3)nn2-c2ccccc2)[C@H](c2ccnc(F)c2)O1 (racemic) [Compound I-165]
[4]
  IC50: 0.0053 µM

## COCCN1C[C@@H](NC(=O)Nc2c(C)c(-c3cnc(N4CC(O)C4)nc3)nn2-c2ccccc2)[C@H](c2ccc(F)cc2)O1 (racemic) [Compound I-265]
[3]
  IC50: < 0.1 µM

## COCCN1C[C@@H](NC(=O)Nc2c(C)c(-c3cnc(N4CCN(C)CC4)nc3)nn2-c2ccccc2)[C@H](c2ccc(F)c(F)c2)O1 [Compound I-598]
[5]
  IC50: < 0.1 µM

## COCCN1C[C@@H](NC(=O)Nc2c(C)c(OC3CN(C(=O)OC(C)(C)C)C3)nn2-c2ccccc2)[C@H](c2ccc(F)c(F)c2)O1 [Compound I-573]
[2]
  IC50: < 0.1 µM
